This is an account of results in US20210393540A1, “NANOPARTICLE-ENCAPSULATED CANNABINOIDS AND METHODS FOR MAKING AND USING SAME” (NuRevelation, LLC, priority 2020, published 2021).

The data set is described as follows: Stability of CBD after encapsulation into nanoparticles, by NMR spectra. As to conditions: NMR spectrum of CBD after encapsulation into nanoparticles (bottom) relative to non-encapsulated CBD sample (top), FIG. 3. In kind it is physicochemical. From the text: In some aspects, the cannabinoid in the dispersion can have a purity of at least 90%. In a further aspect, the purity of the cannabinoid in the dispersion ranges from 90-100%. In a still further aspect, the purity of the cannabinoid in the dispersion ranges from 92-97%. In general, the inventors have discovered that the encapsulation process described herein can be improved with the use of a pure cannabinoid starting material (e.g., from 92-97% pure). Similarly, the nanoparticle encapsulated cannabinoid products can advantageously maintain the purity of the cannabinoid over extended periods of time. In some aspects, the purity of the cannabinoid starting material can be maintained once encapsulated for a period of twelve months or longer, e.g., 18 months or longer, or even 24 months or longer. The stable shelf life of the cannabinoid nanoparticles is an advantage over many existing methods for delivering cannabinoid products. In some aspects, the stability of the cannabinoid can be measured using NMR, e.g., by comparing a pre-encapsulated cannabinoid to a cannabinoid extracted from a nanoparticle prepared by a disclosed method.

Regarding `C=C(C)[C@@H]1CCC(C)=C[C@H]1c1c(O)cc(CCCCC)cc1O` [CBD, cannabidiol], the “stability of CBD after encapsulation” value is on record as “remains intact”.
